Publication PMC12584836, “Rubus caesius leaves and stems in antiaging skin care products: antityrosinase, anticollagenase, antimicrobial activity, and transdermal distribution of main phenolic acids” (Pharmaceutical Biology, 2025)
Marks after values point to notes of the source that are not given here.

Tests used:
[1] = Skin permeation from hydrogels in Franz diffusion cells; assay type: in vitro ADME; conditions: porcine skin
Method: Permeation experiments were conducted using Franz diffusion cells (Phoenix DB-6, ABL&E-JASCO, Wien, Austria), with a donor chamber area of 1 cm^2 and 10 mL acceptor chamber filled with phosphate-buffered saline (PBS, pH 7.4). The system was maintained at 37.0 ± 0.5 °C, and the acceptor solutions were continuously stirred.
Skin samples were wrapped in aluminum foil, frozen at −20 °C for no longer than three months. […] Skin impedance was measured by immersing the probe tips in the donor and acceptor chambers filled with PBS.
One gram of each hydrogel was applied to the donor chamber. All chambers were sealed with plastic stoppers to minimize evaporation. […] Phenolic acid concentrations were determined by HPLC.
J-shaped profiles and the following equations were used: (1) A=JSS(t−LT) where A is the cumulative amount permeated (μg·cm^−2) of tested phenolic acids permeating into the receptor compartment; JSS is the steady-state flux (μg·cm^−2·h^−1); t is the time (h), and LT is the lag time (h).
The steady-state flux was estimated from the slope of the linear portion of the plot of cumulative mass in the acceptor phase over time. The lag time (LT) was determined from the x-intercept of the linear portion of the plot of cumulative mass in the acceptor phase over time and was used to calculate the […] (KP) as follows: (2) KP=JSS/C where C is the concentration in the donor phase.

[2] = Skin accumulation after 24 h permeation; assay type: in vitro ADME; conditions: after 24-h penetration; HL-E application; porcine skin
Method: Following incubation, samples were homogenized (IKA®T18 digital ULTRA TURRAX, Germany) for 3 min and centrifuged at 3500 rpm for 5 min. The resulting supernatants were analyzed by HPLC spectrophotometry, with methanol used as a blank. Accumulated phenolic acids were expressed as amount (µg) per gram of skin tissue (µg·g skin^−1).

SMILES | Phenolic acids concentration in the acceptor fluid (cumulative mass) ([1]; from hydrogel HL-E, 3 h) | Phenolic acids concentration in the acceptor fluid (cumulative mass) ([1]; from hydrogel HL-E, 5 h) | Phenolic acids concentration in the acceptor fluid (cumulative mass) ([1]; from hydrogel HL-E, 8 h) | Phenolic acids concentration in the acceptor fluid (cumulative mass) ([1]; from hydrogel HL-E, 24 h) | D·10^4, diffusion coefficient ([1]; from hydrogel HL-E) [cm^2/h] | JSS, steady-state flux ([1]; from hydrogel HL-E) [µg/cm^2·h] | LT, lag time ([1]; from hydrogel HL-E) [h] | Q%24h, percentage of applied dose in acceptor phase after 24 h ([1]; from hydrogel HL-E) [%] | Phenolic acids concentration in the acceptor fluid (cumulative mass) ([1]; from hydrogel HS-E, 24 h) | Q%24h, percentage of applied dose in acceptor phase after 24 h ([1]; from hydrogel HS-E) [%] | Phenolic acids concentration in the acceptor fluid (cumulative mass) ([1]; from hydrogel HS-E, 8 h) | also measured
COc1cc(C(=O)O)ccc1O [Vanillic acid, vanillic acid] | 0.49 ± 0.25^a µg/cm^2 | 1.76 ± 0.82^a µg/cm^2 | 3.92 ± 1.06^a µg/cm^2 | 15.61 ± 2.42^a µg/cm^2 | 2.68 ± 0.19 | 0.54 ± 0.03 | 1.55 ± 0.13 | 4.77 ± 0.29 | 0.95 ± 0.15^b µg/cm^2 | 3.28 ± 0.52 |  | Q%24h, percentage of applied dose in acceptor phase after 24 h ([1]; from hydrogel HL-E, listed as vanillic acid): 4.77%
O=C(O)c1cc(O)c(O)c(O)c1 [Gallic acid, gallic acid] | 6.18 ± 0.35^a µg/cm^2 | 10.24 ± 0.97^a µg/cm^2 | 16.09 ± 1.19^a µg/cm^2 | 49.62 ± 2.18^a µg/cm^2 | 25.73 ± 1.64 | 2.08 ± 0.08 | 0.16 ± 0.02 | 5.78 ± 0.25 | 7.19 ± 0.47^b µg/cm^2 | 4.78 ± 0.35 | 4.69 ± 0.19^b µg/cm^2 | Accumulation of phenolic acid in the skin [2]: 70.62 ± 4.06 µg/g skin; Phenolic acids concentration in the acceptor fluid (cumulative mass) ([1]; from hydrogel HL-E, 1 h): 3.64 ± 0.12^a µg/cm^2; Phenolic acids concentration in the acceptor fluid (cumulative mass) ([1]; from hydrogel HL-E, 2 h): 4.54 ± 0.47^a µg/cm^2; Phenolic acids concentration in the acceptor fluid (cumulative mass) ([1]; from hydrogel HL-E, 24 h, listed as gallic acid): 49.62 ± 2.18 µg/cm^2; Q%24h, percentage of applied dose in acceptor phase after 24 h ([1]; from hydrogel HL-E, listed as gallic acid): 5.78%; Phenolic acids concentration in the acceptor fluid (cumulative mass) ([1]; from hydrogel HS-E, 5 h): 3.95 ± 0.18^b µg/cm^2; D·10^4, diffusion coefficient ([1]; from hydrogel HS-E): 2.01 ± 0.09 cm^2/h; JSS, steady-state flux ([1]; from hydrogel HS-E): 0.88 ± 0.04 µg/cm^2·h; LT, lag time ([1]; from hydrogel HS-E): 2.08 ± 0.09 h
O=C(O)/C=C/c1ccc(O)c(O)c1 [Caffeic acid, caffeic acid] | 2.58 ± 0.20^a µg/cm^2 | 2.84 ± 0.07^a µg/cm^2 | 3.30 ± 0.13^a µg/cm^2 | 7.83 ± 0.83^a µg/cm^2 | 3.41 ± 0.28 | 0.84 ± 0.02 | 1.22 ± 0.09 | 0.68 ± 0.07 | not permeating at all |  |  | 
O=C(O)/C=C/c1ccc(O)cc1 [Coumaric acid, coumaric acid] | 4.97 ± 0.09^a µg/cm^2 | 7.04 ± 0.75^a µg/cm^2 | 8.95 ± 1.00^a µg/cm^2 | 12.45 ± 0.26^a µg/cm^2 | 9.27 ± 0.73 | 1.35 ± 0.17 |  | 2.62 ± 0.05 | 5.93 ± 0.08^b µg/cm^2 | 5.37 ± 0.07 | 5.10 ± 0.11^b µg/cm^2 | 
